From BindingDB's records for doi:10.1074/jbc.M113.521955 (Albert Einstein College of Medicine, 2013)
pKi: −log10 of the molar value.

What was measured:
[1] = molecular target: T1, Uridine 5'-monophosphate synthase (Homo sapiens, UniProt P11172); assay: Inhibition Assay; conditions: pH 8; 25 °C
T1 sequence (P11172 whole entry): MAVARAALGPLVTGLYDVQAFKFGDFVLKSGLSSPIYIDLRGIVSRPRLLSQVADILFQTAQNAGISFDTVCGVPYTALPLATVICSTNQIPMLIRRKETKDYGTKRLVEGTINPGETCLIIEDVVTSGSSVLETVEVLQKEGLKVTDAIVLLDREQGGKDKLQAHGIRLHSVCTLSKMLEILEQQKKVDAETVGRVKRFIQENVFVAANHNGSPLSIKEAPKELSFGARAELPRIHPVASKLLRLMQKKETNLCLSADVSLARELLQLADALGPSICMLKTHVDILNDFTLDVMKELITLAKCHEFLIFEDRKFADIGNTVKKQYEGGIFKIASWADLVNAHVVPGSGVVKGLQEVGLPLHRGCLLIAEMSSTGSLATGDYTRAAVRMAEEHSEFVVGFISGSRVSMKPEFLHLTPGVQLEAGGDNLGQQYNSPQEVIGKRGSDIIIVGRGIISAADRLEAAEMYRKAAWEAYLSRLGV
Protocol: (§1) In all cases, the inhibitor concentration was at least 10 times the enzyme concentration. Reaction rates were monitored through the absorbance increase at 295 nm to give an extinction coefficient of 3.67 mM-1 cm-1 [Abdo et al., Org. Lett., 12:2982-2985].

[2] = molecular target: T2, Orotate phosphoribosyltransferase (Plasmodium falciparum (isolate 3D7), UniProt Q8I3Y0); assay: Inhibition Assay; conditions: pH 8; 25 °C
T2 sequence (Q8I3Y0 whole entry): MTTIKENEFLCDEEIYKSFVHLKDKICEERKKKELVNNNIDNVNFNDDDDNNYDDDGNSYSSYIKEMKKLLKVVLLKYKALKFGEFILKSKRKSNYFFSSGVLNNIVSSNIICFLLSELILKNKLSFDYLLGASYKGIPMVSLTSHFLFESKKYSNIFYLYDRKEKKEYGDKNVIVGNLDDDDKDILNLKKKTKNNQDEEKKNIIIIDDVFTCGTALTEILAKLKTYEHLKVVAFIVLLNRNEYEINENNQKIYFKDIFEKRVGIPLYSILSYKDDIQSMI
Protocol: as §1

SMILES	pKi [1]	pKi [2]
O=[N+]([O-])c1ccc(CCNC(CO)CO)cc1 [OPRT inhibitor, 20]	6.92	6.29
O=c1[nH]c(=O)n(CCN2CC(O)C(O)[C@H]2CO)cc1Br (stereo not given in full) [OPRT inhibitor, 9]	7.10	6.57
O=c1[nH]c(=O)n(CCN2CC(O)[C@@H](CO)C2)cc1Br (stereo not given in full) [OPRT inhibitor, 11]	6.28	5.89
O=c1[nH]c(=O)n(C[C@@H]2N[C@H](COP(=O)(O)O)C(O)C2O)cc1Br (stereo not given in full) [OPRT inhibitor, 4]	6.70	6.43
O=[N+]([O-])c1ccc([C@@H]2N[C@H](CO)C(O)C2O)cc1 (stereo not given in full) [OPRT inhibitor, 16]	6.64	6.32
O=[N+]([O-])c1ccc(O[C@@H]2O[C@H](COP(=O)(O)O)C(O)C2O)cc1 (stereo not given in full) [OPRT inhibitor, 2]	7.39	7.40
O=[N+]([O-])c1ccc(CCN2CC(O)[C@@H](CO)C2)cc1 (stereo not given in full) [OPRT inhibitor, 18]	6.64	6.24
O=[N+]([O-])c1ccc(CN2CC(O)[C@@H](CO)C2)cc1 (stereo not given in full) [OPRT inhibitor, 17]	6.70	6.12
O=C(O)c1ccncc1[C@@H]1N[C@H](COP(=O)(O)O)C(O)C1O (stereo not given in full) [OPRT inhibitor, 12]	5.37	4.81
O=C(O)c1[nH]c(=O)[nH]c(=O)c1CN1CCCC1 [OPRT inhibitor, 13]	6.60	6.33
O=[N+]([O-])c1ccc(CNC(CO)CO)cc1 [OPRT inhibitor, 19]	6.82	6.30
O=C(O)c1[nH]c(=O)[nH]c(=O)c1CN1CC(O)[C@@H](CO)C1 (stereo not given in full) [OPRT inhibitor, 14]	7.08	6.66
N#Cc1cc(=O)[nH]c(=O)n1C[C@@H]1N[C@H](COP(=O)(O)O)C(O)C1O (stereo not given in full) [OPRT inhibitor, 6]	6.85	6.46
O=C1c2cc(=O)[nH]c(=O)n2C[C@H]2C(O)C(O)[C@@H](COP(=O)(O)O)N12 (stereo not given in full) [OPRT inhibitor, 8]	7.05	6.77
O=[N+]([O-])c1ccc(O[C@@H]2O[C@H](CO)C(O)C2O)cc1 (stereo not given in full) [OPRT inhibitor, 1]	6.92	6.72
O=C1c2cc(=O)[nH]c(=O)n2C[C@H]2C(O)C(O)[C@@H](CO)N12 (stereo not given in full) [OPRT inhibitor, 7]	6.96	6.57
N#Cc1cc(=O)[nH]c(=O)n1C[C@@H]1N[C@H](CO)C(O)C1O (stereo not given in full) [OPRT inhibitor, 5]	6.44	6.52
O=C(O)c1cc(=O)[nH]c(=O)n1CCN1CC(O)C(O)[C@H]1CO (stereo not given in full) [OPRT inhibitor, 10]	6.54	6.16
O=c1[nH]c(=O)n(C[C@@H]2N[C@H](CO)C(O)C2O)cc1Br (stereo not given in full) [OPRT inhibitor, 3]	6.28	6.46
O=C(O)c1[nH]c(=O)[nH]c(=O)c1CN1CC(O)[C@@H](COP(=O)(O)O)C1 (stereo not given in full) [OPRT inhibitor, 15]	6.62	6.30
